From patent US20110212955A1, “ROSAMINE DERIVATIVES AS AGENTS FOR THE TREATMENT OF CANCER” (CANCER RESEARCH INITIATIVES FOUNDATION, priority 2008, published 2011)
Values joined by “and” are separate entries in the source; they are usually repeats but may differ in a detail not shown here. Identical values can stand only once. Like-named read-outs stand apart in the source and are kept apart here.

What was measured:
[1] = system: whole animal tumor models; settings: a number of whole animal tumor models; cited from earlier work
[2] = system: HL60; assay: In vitro antiproliferative MTT assay in HL60, 24 h endpoint; type: cell-based, human; settings: triplicate determination; for IC50: read-out: IC50 (μM) ± S.D. in HL60
Description: In vitro proliferation assay. Approximately 3 000-5 000 (15 000 cells for HL-60) exponentially growing cells were seeded in each well of a 96-well plate with 50 μl of medium and were allowed to adhere overnight. Cells were then treated with each compound at concentrations ranging from 0.01-10 μM giving the final volume of 100 μl in each well. At the end of incubation period, 15 μl of MTT solution (5.0 mg/ml in PBS) was added and incubated for an additional 4 h. Medium and excessive MTT were aspirated and formazan formed was solubilized with 100 μl of DMSO. Absorbance, as a measurement of viable cell number was read at 570 nm with ThermoLabsystems OpsysMR microplate spectrometer. At least three independent experiments were performed and results are presented as an average.

[3] = system: HK1; assay: In vitro anti-proliferative MTT assay, 48 h, HK1; type: cell-based, human; settings: HK1, nasopharyngeal, 48 h post-treatment, read-out: IC50 (μM) ± S.D., HK1
Source text: (§1) In vitro proliferation assay.

[4] = system: HSC2; assay: In vitro anti-proliferative MTT assay, 48 h, HSC2; type: cell-based, human; settings: HSC2, oral, 48 h post-treatment, read-out: IC50 (μM) ± S.D., HSC2
Source text: as §1

[5] = Fluorescence quantum yield; type: physicochemical; settings: for fluorescence quantum yield: in ethanol, unpublished data
Description: Steady-state fluorescence spectroscopic studies were performed on a Cary Eclipse fluorometer. The slit width was 5 nm for both excitation and emission. The relative quantum yields of the samples were obtained by comparing the area under the corrected emission spectrum of the test sample with that of a standard. The quantum efficiencies of fluorescence were obtained from multiple measurements (N=3) with the following equation:
Φx=Φst(Ix/Ist)(Ast/Ax)(ηx^2/ηst^2)
Where Φst is the reported quantum yield of the standard, I is the area under the emission spectra, A is the absorption at the excitation wavelength and η is the refractive index of the solvent used, measured on a pocket refractometer from ATAGO. X subscript denotes test sample, and st denotes standard.

[6] = system: NP69; assay: In vitro anti-proliferative MTT assay, 48 h, NP69 immortalized normal nasopharyngeal epithelial cells; type: cell-based; settings: immortalized normal human epithelial cells, read-out: IC50 (μM) ± S.D., NP69
Source text: as §1

[7] = system: MCF-7; assay: In vitro anti-proliferative MTT assay, 48 h, MCF-7; type: cell-based, human; settings: MCF-7, breast, 48 h post-treatment, read-out: IC50 (μM) ± S.D., MCF-7
Source text: as §1

[8] = system: OKF6; assay: In vitro anti-proliferative MTT assay, 48 h, OKF6 immortalized normal oral keratinocytes; type: cell-based; settings: immortalized normal human epithelial cells, read-out: IC50 (μM) ± S.D., OKF6
Source text: as §1

[9] = system: HCT116; assay: In vitro anti-proliferative MTT assay, 48 h, HCT116; type: cell-based, human; settings: HCT116, colon, 48 h post-treatment, read-out: IC50 (μM) ± S.D., HCT116
Source text: as §1

[10] = system: HSC2 cells; settings: 100 nM
Description: Cellular localization. HSC2 cells grown on round glass coverslips in 12-well plate were co-incubated with 100 nM of compound 11 together with organelle-specific fluorescence probes. The endoplasmic reticulum was labeled with 100 nM of ER-Tracker Blue-White DPX, the lysosomes were stained with 500 nM of LysoTracker Blue DND-22, and the mitochrondria was tracked with 100 nM of Rh123 respectively for 15-30 min of incubation at room temperature. After incubation, cells were gently rinsed in PBS to remove free dyes, and the stained cells were observed using Olympus DSU spinning disk confocal microscope configured with a PlanApo x63 oil objective and iXon EM+(Andor Technology) digital camera. Fluorescent images of X-Y sections at 0.2 μm were collected sequentially using Olympus Cell^R software. Organelle-specific fluorescence probes were respectively excited at 365 nm to illuminate ER-tracker and LysoTracker, at 494 nm for Rh123 and at 575 nm for compound 11.

[11] = system: HSC2 cells; settings: 0.5 μM
Description: AnnexinV-FITC apoptosis analysis. HSC2 cells grown in 60-mm dishes at 50% confluency were treated with 0.5 μM of compound 11. At various treatment intervals, floating cells in the medium were pooled together with the adherent cells after trypsinization and were washed twice with cold PBS. The cells were resuspended with 1× binding buffer at 1×10^6 cells/ml. A 100 μl of cell suspension was transferred to a 5 ml tube followed by […] of AnnexinV-FITC and […] of propidium iodide (200 μg/ml in PBS). The cells were gently mixed and incubated for 15 min at RT in the dark before analysed on a FACSCalibur flow cytometer with 488 nm argon laser. The fluorescence data of 10 000 cells were collected with the FL1 detector with 530/30 band pass filter to collect Annexin-FITC fluorescence, and the FL3 detector with a 630 nm long pass filter to collect propidium iodide fluorescence.

[12] = system: HSC2 cells; settings: IC50 concentration (0.25 μM), 4 h to 48 h
Description: Cell cycle analysis. HSC2 cells were treated and collected as above. Cells were then fixed in 70% ice-cold ethanol (v/v in PBS) overnight at 4° C. Following fixation, the cells were washed twice in cold PBS. The pellet was then resuspended in PBS solution containing 20 μg/ml RNase A and 1 μM SYTOX Green for 30 min. The cells were analysed on a FACSCalibur flow cytometer with 488 nm argon laser. The DNA-SYTOX Green fluorescence of 10 000 cells were collected with the FL1 detector with 530/30 band pass filter.

[13] = system: A6-derived subcutaneous tumors; settings: nude mice, intraperitoneal injection; cited from earlier work
[14] = system: transformed mouse mammary epithelial cells; settings: cells with increased mitochondrial transmembrane potential; cited from earlier work
[15] = system: carcinoma; settings: cited from earlier work
[16] = system: cancer cells; settings: cited from earlier work
[17] = system: non-tumorigenic epithelial cell types; settings: in vitro, similar concentrations; cited from earlier work
[18] = system: carcinoma cell types; settings: in vitro; cited from earlier work
[19] = Homo sapiens, HL-60, HL60, 24 h post-treatment

3-ethyl-3′-methyl-thiatelluracarbocyanine iodide
activity in whole animal tumor models [1]: anti-carcinoma activity

Cc1ccccc1-c1c2ccc(=[N+]3CCCC3)cc-2oc2cc(N3CCCC3)ccc12 [Compound 1]
IC50 ([2]; HL60, 24 h post-treatment): 0.72 ± 0.09 µM

Cc1ccccc1-c1c2ccc(=[N+]3CCCCC3)cc-2oc2cc(N3CCCCC3)ccc12 [Compound 2]
IC50 ([2]; HL60, 24 h post-treatment): 0.76 ± 0.03 µM

Cc1ccccc1-c1c2ccc(=[N+]3CCOCC3)cc-2oc2cc(N3CCCCC3)ccc12.[Cl-] [Compound 3]
IC50 (μM) ± S.D. in HL60 ([2]; HL60, 24 h post-treatment): lowest IC50 value among compounds 1-6
IC50 ([2]; HL60, 24 h post-treatment): 0.35 ± 0.01 µM

Cc1ccccc1-c1c2ccc(=[N+]3CCOCC3)cc-2oc2cc(N3CCOCC3)ccc12.[Cl-] [Compound 4]
IC50 (μM) ± S.D. in HL60 ([2]; HL60, 24 h post-treatment): moderate to poor activity
IC50 ([2]; HL60, 24 h post-treatment): 8.27 µM

Cc1ccccc1-c1c2ccc(=[N+]3CCN(C(=O)OC(C)(C)C)CC3)cc-2oc2cc(N3CCN(C(=O)OC(C)(C)C)CC3)ccc12 [Compound 5]
IC50 ([2]; HL60, 24 h post-treatment): 0.62 ± 0.07 µM

Cc1ccccc1-c1c2ccc(=[N+]3CCNCC3)cc-2oc2cc(N3CCNCC3)ccc12.[Cl-] [Compound 6]
IC50 (μM) ± S.D. in HL60 ([2]; HL60, 24 h post-treatment): moderate to poor activity
IC50 ([2]; HL60, 24 h post-treatment): 36.7 µM and 53.3 µM

Cc1c2ccc(=[N+]3CCCCC3)cc-2oc2cc(N3CCCCC3)ccc12.[Cl-] [Compound 7]
IC50 (μM) ± S.D. in HL60 ([2]; HL60, 24 h post-treatment): moderate to poor activity
IC50 ([2]; HL60, 24 h post-treatment): 3.86 ± 1.46 µM

c1ccc(Cc2c3ccc(=[N+]4CCCCC4)cc-3oc3cc(N4CCCCC4)ccc23)cc1 [Compound 8]
IC50 ([2]; HL60, 24 h post-treatment): 0.82 ± 0.04 µM

[Cl-].c1csc(-c2c3ccc(=[N+]4CCCCC4)cc-3oc3cc(N4CCCCC4)ccc23)c1 [Compound 10]
IC50 [3]: 0.09 ± 0.01 µM
IC50 [4]: 0.12 ± 0.09 µM
fluorescence quantum yield [5]: 0.10 ± 0.01
IC50 [6]: 0.33 ± 0.2 µM
IC50 ([2]; HL60, 24 h post-treatment): 0.1 µM
IC50 [7]: 0.27 ± 0.16 µM
IC50 [8]: 0.25 ± 0.1 µM
IC50 [9]: 0.15 ± 0.06 µM

Ic1ccc(-c2c3ccc(=[N+]4CCCCC4)cc-3oc3cc(N4CCCCC4)ccc23)cc1.[Cl-] [Compound 11]
IC50 [3]: 0.42 ± 0.06 µM
IC50 [4]: 0.25 ± 0.12 µM
presence of compound in the nucleus [10]: remained free of compound 11
staining of the cytoplasmic or nuclear membrane [10]: not detected
co-localisation with ER and lysosomes ([10]; ER-Tracker and LysoTracker): only partial co-localisation
cells staining positive for annexin V ([11]; 0 h or 4 h time-points): less than 10%
cells staining positive for annexin V ([11]; 8 h of compound incubation): 16%
proportion of cells undergoing apoptosis ([11]; within 24 h): 58%
fluorescence quantum yield [5]: 0.28 ± 0.01
IC50 [6]: 0.51 ± 0.16 µM
IC50 ([2]; HL60, 24 h post-treatment): 0.09 µM
cell cycle profile [12]: remained unchanged
IC50 [7]: 0.39 ± 0.22 µM
IC50 [8]: 0.41 ± 0.07 µM
IC50 [9]: 0.39 ± 0.11 µM

COc1ccc(-c2c3ccc(=[N+]4CCCCC4)cc-3oc3cc(N4CCCCC4)ccc23)cc1 [Compound 12]
IC50 ([2]; HL60, 24 h post-treatment): 0.66 ± 0.17 µM

COc1ccccc1-c1c2ccc(=[N+]3CCCCC3)cc-2oc2cc(N3CCCCC3)ccc12 [Compound 13]
IC50 ([2]; HL60, 24 h post-treatment): 0.95 ± 0.01 µM

COc1cccc(OC)c1-c1c2ccc(=[N+]3CCCCC3)cc-2oc2cc(N3CCCCC3)ccc12 [Compound 14]
IC50 ([2]; HL60, 24 h post-treatment): 0.25 ± 0.22 µM

Oc1cccc(O)c1-c1c2ccc(=[N+]3CCCCC3)cc-2oc2cc(N3CCCCC3)ccc12 [Compound 15]
IC50 (μM) ± S.D. in HL60 ([2]; HL60, 24 h post-treatment): moderate to poor activity
IC50 [2, 19]: 2.91 ± 1.86 µM

O=C(O)COc1cccc(OCC(=O)O)c1-c1c2ccc(=[N+]3CCCCC3)cc-2oc2cc(N3CCCCC3)ccc12 [Compound 16]
quantum yield ([5]; in phosphate buffer): 0.13
IC50 (μM) ± S.D. in HL60 ([2]; HL60, 24 h post-treatment): moderate to poor activity
IC50 [2, 19]: > 100 µM

C[n+]1ccc(/C=C/c2c[nH]c3ccccc23)cc1.[I-] [Compound F16]
growth of A6-derived subcutaneous tumors [13]: retard the growth
proliferation of transformed mouse mammary epithelial cells [14]: selectively inhibited proliferation

CCn1c(=O)/c(=C2\Sc3ccccc3N2C)s/c1=C\c1cccc[n+]1CC.[Cl-] [MKT-077]
accumulation in tumor cell mitochondria ([15]; clinical study): preferentially accumulated in tumor cell mitochondria
clinical efficacy ([15]; phase II, approved dosage and drug regimen): lack of efficacy
growth of cancer cells in vitro and in vivo [16]: significantly inhibit growth

COC(=O)c1ccccc1-c1c2ccc(=N)cc-2oc2cc(N)ccc12.Cl [Rh123, rhodamine 123, reference compound]
IC50 [3]: 5.86 ± 0.15 µM
IC50 [4]: 4.48 ± 2.23 µM
non-tumorigenic epithelial cell types that remained unaffected [17]: 6/6
IC50 [6]: 6.28 ± 0.21 µM
IC50 [7]: 5.61 ± 0.61 µM
IC50 [8]: 9.84 ± 3.46 µM
carcinoma cell types in which cell death was markedly induced [18]: 9/9
IC50 [9]: 7.92 ± 0.95 µM

Cc1cc(N)c2ccccc2[n+]1CCCCCCCCCC[n+]1c(C)cc(N)c2ccccc21 [dequalinium chloride]
activity in whole animal tumor models [1]: anti-carcinoma activity
